The values that follow are results of earlier work, collected in US20200315935A1, “TOPICALLY APPLICABLE CHEMICAL PEEL COMPOSITION” (L'OREAL, priority 2015, published 2020).

For data set [1] the following is noted: acute oral toxicity, mutagenicity, skin irritation, skin sensitization, and phototoxicity.

The structures appear in SMILES notation. Where two headings read alike, the source gives them in different places.

For `Oc1cccc(O)c1` [Resorcinol, reference compound], the pKA is 9.32-9.81.

Turning to `CC(c1ccccc1)c1ccc(O)cc1O` (stereo not shown) [Phenylethyl Resorcinol], the pKA was 9.77-10.77. The “adverse effects in basic toxicological tests” value in data set [1] (listed as Phenylethyl resorcinol) was “not shown adverse effects”. Besides, the “adverse effects in basic toxicological tests” value in data set [1] (listed as phenylethyl resorcinol) was “not been shown to have adverse effects”.
